One molecule from paper PMC2229628 (The Journal of Endocrinology, 2008) can be followed below.

This assay addresses T1, human GnRH receptor (hGnRHR) (Homo sapiens, UniProt P30968).
T1 sequence (P30968 1-328): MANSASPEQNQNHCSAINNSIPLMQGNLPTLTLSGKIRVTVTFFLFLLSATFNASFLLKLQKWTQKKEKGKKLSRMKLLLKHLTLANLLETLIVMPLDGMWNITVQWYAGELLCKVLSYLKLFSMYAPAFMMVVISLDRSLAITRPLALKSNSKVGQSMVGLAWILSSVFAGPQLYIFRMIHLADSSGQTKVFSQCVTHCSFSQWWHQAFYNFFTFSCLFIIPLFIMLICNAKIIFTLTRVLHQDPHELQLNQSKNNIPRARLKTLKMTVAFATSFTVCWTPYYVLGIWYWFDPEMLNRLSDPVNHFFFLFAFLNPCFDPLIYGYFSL
The class given is cell-based.

For the molecule `Cc1cc(C)cc(-c2[nH]c3ccc(C(C)(C)C(=O)N4CC5CCC4CC5)cc3c2[C@H](C)CNCCc2ccncc2)c1` [IN3, (2S)-2-[5-[2-(2-axabicyclo[2.2.2]oct-2-yl)-1,1-dimethy-2-oxoethyl]-2-(3,5-dimethylphenyl)-1H-indol-3-yl]-N-(2-pyridin-4-ylethyl)propan-1-amine], the EC50 is on record as 3–5×10^−8 M.
